Reference: patent US20250098679A1, “HERBICIDAL PYRIDONE DERIVATIVES” (SYNGENTA CROP PROTECTION AG, priority 2021, published 2025)

Legend:
Type in all cases: in vivo
Details in all cases: evaluated after 13 days
[1] = system: Amaranthus palmeri (AMAPA); experiment: Pre-emergence Test, Amaranthus palmeri (AMAPA)
[2] = system: Amaranthus retoflexus (AMARE); experiment: Post-emergence Test, Amaranthus retoflexus (AMARE); design: key to percentage damage caused to the plant, AMARE (five-point scale): 5=81-100%, 4=61-80%, 3=41-60%, 2=21-40%, 1=0-20% damage
Procedure, shortened: (§1)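 Scores are percentage plant damage on a 1–5 scale (1=0-20%, 2=21-40%, 3=41-60%, 4=61-80%, 5=81-100%), read 13 days after treatment. Pots received a spray at 1000 g/ha unless otherwise stated, formulated in acetone/water (50:50) containing 0.5% Tween 20.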

[3] = system: Echinochloa crus-galli (ECHCG); experiment: Pre-emergence Test, Echinochloa crus-galli (ECHCG)
[4] = system: Amaranthus palmeri (AMAPA); experiment: Post-emergence Test, Amaranthus palmeri (AMAPA); design: key: 5=81-100%, 4=61-80%, 3=41-60%, 2=21-40%, 1=0-20% damage
Procedure, shortened: as §1

[5] = system: Setaria faberi (SETFA); experiment: Post-emergence Test, Setaria faberi (SETFA); design: key to percentage damage caused to the plant, SETFA (five-point scale): 5=81-100%, 4=61-80%, 3=41-60%, 2=21-40%, 1=0-20% damage
Procedure, shortened: as §1

[6] = system: Ipomoea hederacea (IPOHE); experiment: Pre-emergence Test, Ipomoea hederacea (IPOHE)
[7] = system: Zea mays (ZEAMX); experiment: Post-emergence Test, Zea mays (ZEAMX); design: key to percentage damage caused to the plant, ZEAMX (five-point scale): 5=81-100%, 4=61-80%, 3=41-60%, 2=21-40%, 1=0-20% damage
Procedure, shortened: as §1

[8] = system: Echinochloa crus-galli (ECHCG); experiment: Post-emergence Test, Echinochloa crus-galli (ECHCG); design: key to percentage damage caused to the plant, ECHCG (five-point scale): 5=81-100%, 4=61-80%, 3=41-60%, 2=21-40%, 1=0-20% damage
Procedure, shortened: as §1

[9] = system: Ipomoea hederacea (IPOHE); experiment: Post-emergence Test, Ipomoea hederacea (IPOHE); design: key to percentage damage caused to the plant, IPOHE (five-point scale): 5=81-100%, 4=61-80%, 3=41-60%, 2=21-40%, 1=0-20% damage
Procedure, shortened: as §1

[10] = system: Setaria faberi (SETFA); experiment: Pre-emergence Test, Setaria faberi (SETFA)
[11] = system: Amaranthus retoflexus (AMARE); experiment: Pre-emergence Test, Amaranthus retoflexus (AMARE)
[12] = system: Zea mays (ZEAMX); experiment: Pre-emergence Test, Zea mays (ZEAMX)

Row | Structure (SMILES) | Pre-emergence Test AMAPA, percentage damage caused to the plant (five-point scale) ([1]; 250 g/Ha (*)) | Pre-emergence Test AMAPA, percentage damage caused to the plant (five-point scale) ([1]; 1000 g/ha) | percentage damage caused to the plant, AMARE (five-point scale) ([2]; 250 g/Ha) | percentage damage caused to the plant, AMARE (five-point scale) ([2]; 1000 g/ha) | Pre-emergence Test ECHCG, percentage damage caused to the plant (five-point scale) ([3]; 250 g/Ha (*)) | Pre-emergence Test ECHCG, percentage damage caused to the plant (five-point scale) ([3]; 1000 g/ha) | percentage damage caused to the plant, AMAPA (five-point scale) ([4]; 250 g/Ha) | percentage damage caused to the plant, AMAPA (five-point scale) ([4]; 1000 g/ha) | percentage damage caused to the plant, SETFA (five-point scale) ([5]; 250 g/Ha) | percentage damage caused to the plant, SETFA (five-point scale) ([5]; 1000 g/ha) | Pre-emergence Test IPOHE, percentage damage caused to the plant (five-point scale) ([6]; 1000 g/ha) | percentage damage caused to the plant, ZEAMX (five-point scale) ([7]; 250 g/Ha) | percentage damage caused to the plant, ZEAMX (five-point scale) ([7]; 1000 g/ha) | percentage damage caused to the plant, ECHCG (five-point scale) ([8]; 250 g/Ha) | percentage damage caused to the plant, ECHCG (five-point scale) ([8]; 1000 g/ha) | percentage damage caused to the plant, IPOHE (five-point scale) ([9]; 250 g/Ha) | percentage damage caused to the plant, IPOHE (five-point scale) ([9]; 1000 g/ha) | Pre-emergence Test SETFA, percentage damage caused to the plant (five-point scale) ([10]; 1000 g/ha) | Pre-emergence Test AMARE, percentage damage caused to the plant (five-point scale) ([11]; 1000 g/ha) | Pre-emergence Test ZEAMX, percentage damage caused to the plant (five-point scale) ([12]; 1000 g/ha) | other results
1 | CCn1c(Cn2ccc(C(F)(F)F)n2)cc(=O)c(C(=O)OC)c1-c1ccc(Cl)cc1 [Compound 22, methyl 2-(4-chlorophenyl)-1-ethyl-4-oxo-6-[[3-(trifluoromethyl)pyrazol-1-yl]methyl]pyridine-3-carboxylate] | 0 | 0 | 1 (1=0-20%) | 1 (1=0-20%) | 1 (1=0-20%) | 3 (3=41-60%) | 1 (1=0-20%) | 1 (1=0-20%) | 3 (3=41-60%) | 3 (3=41-60%) | 0 | 0 | 1 (1=0-20%) | 0 | 3 (3=41-60%) | 1 (1=0-20%) | 2 (2=21-40%) | 4 (4=61-80%) | 0 | 0 | Pre-emergence Test IPOHE, percentage damage caused to the plant (five-point scale) ([6]; 250 g/Ha (*)): 0; Pre-emergence Test SETFA, percentage damage caused to the plant (five-point scale) ([10]; 250 g/Ha (*)): 4 (4=61-80%); Pre-emergence Test AMARE, percentage damage caused to the plant (five-point scale) ([11]; 250 g/Ha (*)): 0; Pre-emergence Test ZEAMX, percentage damage caused to the plant (five-point scale) ([12]; 250 g/Ha (*)): 0
2 | CCn1c(Cn2nc(C(F)(F)F)nc2C)cc(=O)c(C(=O)O)c1-c1ccc(Cl)c(Cl)c1 [Compound 108, 2-(3,4-dichlorophenyl)-1-ethyl-6-[[5-methyl-3-(trifluoromethyl)-1,2,4-triazol-1-yl]methyl]-4-oxo-pyridine-3-carboxylic acid] | – | 0 | 0 | 0 | – | 0 | 0 | 0 | 1 (1=0-20%) | 2 (2=21-40%) | 0 | 0 | 1 (1=0-20%) | 1 (1=0-20%) | 2 (2=21-40%) | 0 | 0 | 0 | 0 | 0 | –
3 | CCn1c(Cn2cc([N+](=O)[O-])c(C)n2)cc(=O)c(C(=O)O)c1-c1ccc(Cl)c(Cl)c1 [Compound 64, 2-(3,4-dichlorophenyl)-1-ethyl-6-[(3-methyl-4-nitro-pyrazol-1-yl)methyl]-4-oxo-pyridine-3-carboxylic acid] | 1 (1=0-20%) | – | 3 (3=41-60%) | – | 0 | – | 2 (2=21-40%) | – | 2 (2=21-40%) | – | – | 1 (1=0-20%) | – | 3 (3=41-60%) | – | 1 (1=0-20%) | – | – | – | – | Pre-emergence Test IPOHE, percentage damage caused to the plant (five-point scale) ([6]; 250 g/Ha (*)): 3 (3=41-60%); Pre-emergence Test SETFA, percentage damage caused to the plant (five-point scale) ([10]; 250 g/Ha (*)): 2 (2=21-40%); Pre-emergence Test AMARE, percentage damage caused to the plant (five-point scale) ([11]; 250 g/Ha (*)): 0; Pre-emergence Test ZEAMX, percentage damage caused to the plant (five-point scale) ([12]; 250 g/Ha (*)): 0
4 | CCOC(=O)c1c(-c2ccc(Cl)c(Cl)c2)n(CC)c(Cn2cnc(C(F)(F)F)n2)cc1=O [Compound 12, ethyl 2-(3,4-dichlorophenyl)-1-ethyl-4-oxo-6-[[3-(trifluoromethyl)-1,2,4-triazol-1-yl]methane]pyridine-3-carboxylate] | – | 0 | – | 1 (1=0-20%) | – | 0 | – | 2 (2=21-40%) | – | 1 (1=0-20%) | 0 | – | 1 (1=0-20%) | – | 1 (1=0-20%) | – | 2 (2=21-40%) | 0 | 0 | 0 | –
